Experimental findings from ChEMBL document CHEMBL1151536, “Biaryl substituted alkylboronate esters as thrombin inhibitors” (Bioorg Med Chem Lett, 1997) are described below.

Structures are written as SMILES.

Assay [1] concerns the target Serine protease 1 (Homo sapiens, UniProt P07477). The assay is described as follows: Inhibition of trypsin.
In assay [2] the target is Prothrombin (Homo sapiens, UniProt P00734). The assay is described as follows: Inhibition of thrombin. More on the design: species or system Oryctolagus cuniculus.
Assay [3] in a line: In vitro inhibitory concentration expressed as thrombin time of the compound. Type of assay: functional.

Chain of Serine protease 1 (P07477 whole entry): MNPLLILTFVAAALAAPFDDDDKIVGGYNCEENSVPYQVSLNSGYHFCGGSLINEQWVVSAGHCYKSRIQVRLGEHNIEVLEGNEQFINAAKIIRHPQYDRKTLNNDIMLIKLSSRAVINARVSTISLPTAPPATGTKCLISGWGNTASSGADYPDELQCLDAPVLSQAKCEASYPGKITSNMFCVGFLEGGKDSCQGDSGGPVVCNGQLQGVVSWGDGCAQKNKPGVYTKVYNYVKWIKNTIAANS

What is called Ki is a dissociation constant, usually derived from enzyme kinetics or from competition with a known ligand. Higher therefore signals weaker binding. Turning to `CC1(C)C2CC1[C@]1(C)OB([C@H](CCCN=C(N)N)NC(=O)c3ccc(-c4ccccc4)c([N+](=O)[O-])c3)O[C@@H]1C2` (some centres not stated), the figures for the Ki in assay [1] and in assay [2] were 4.8 nM and 4.9 nM, respectively.
Take `N=C(N)NCCC[C@H](NC(=O)c1ccc(-c2ccccc2)cc1)B(O)O`: in assay [2], the inhibitory constant (Ki) was 1.7 nM.
Take `CC1(C)C2CC1[C@]1(C)OB([C@H](CCCN=C(N)N)NC(=O)c3ccc(-c4ccccc4)cc3)O[C@@H]1C2` (some centres not stated): the Ki in assay [1] worked out at 33 nM; in assay [2], 0.94 nM.
Take `CC(C)(C)OC(=O)Nc1cccc(-c2ccc(C(=O)N[C@@H](CCCNC(=N)N)B3O[C@@H]4CC5CC(C5(C)C)[C@]4(C)O3)s2)c1` (some centres not stated): the inhibition constant (Ki) in assay [1] turned out to be 13 nM; in assay [2], 42 nM.
By IC50 is commonly meant the concentration needed to halve the response being measured. A higher IC50 goes with a need for much substance. `COC(=O)NS(=O)(=O)c1ccccc1-c1ccc(C(=O)N[C@@H](CCCN=C(N)N)B2O[C@@H]3CC4CC(C4(C)C)[C@]3(C)O2)c(C)c1` (some centres not stated) displayed a half-maximal inhibitory concentration (IC50) in assay [3] of 225 nM. The values for the Ki in assay [1] and in assay [2] were 0.64 nM and 1.1 nM, respectively.
On to `Cc1nc(-c2ccccc2)ccc1C(=O)N[C@@H](CCCCN)B1O[C@@H]2CC3CC(C3(C)C)[C@]2(C)O1` (some centres not stated), for which the Ki in assay [2] was 580 nM.
With `CC1(C)C2CC1[C@]1(C)OB([C@H](CCCN=C(N)N)NC(=O)c3ccc(-c4ccccc4)c(N)c3)O[C@@H]1C2` (some centres not stated), the Ki was 4.7 nM in assay [1] and 5.5 nM in assay [2].
On to `Cc1cc(-c2ccccc2)ccc1C(=O)N[C@@H](CCCN=C(N)N)B1O[C@@H]2CC3CC(C3(C)C)[C@]2(C)O1` (some centres not stated), for which the half-inhibitory concentration (IC50) in assay [3] came to 600 nM. The Ki in assay [1] amounted to 4.2 nM; in assay [2], 0.42 nM.
Turning to `Cc1nc(-c2ccccc2)ncc1C(=O)N[C@@H](CCCCN)B1O[C@@H]2CC3CC(C3(C)C)[C@]2(C)O1` (some centres not stated), the Ki in assay [2] turned out to be 410 nM.
`CCN(CC)S(=O)(=O)c1ccccc1-c1ccc(C(=O)N[C@@H](CCCNC(=N)N)B2O[C@@H]3CC4CC(C4(C)C)[C@]3(C)O2)c(C)c1` (some centres not stated): the Ki was 0.62 nM in assay [1] and 0.36 nM in assay [2].
`CC1(C)C2CC1[C@]1(C)OB([C@H](CCCNC(=N)N)NC(=O)c3cccc(-c4ccccc4)c3)O[C@@H]1C2` (some centres not stated): the figures for the Ki in assay [1] and in assay [2] were 7.4 nM and 110 nM, respectively.
For the compound `CC(=O)N[C@H](Cc1ccccc1)C(=O)N1CCC[C@H]1C(=O)N[C@@H](CCCN=C(N)N)B(O)O`, in assay [3], the IC50 is 55 nM.
Take `Cc1nc(-c2ccccc2)ncc1C(=O)N[C@@H](CCCN=C(N)N)B1O[C@@H]2CC3CC(C3(C)C)[C@]2(C)O1` (some centres not stated): the Ki in assay [2] was found to be 10 nM.
Take `CC(C)(C)OC(=O)Nc1cccc(-c2cccc(C(=O)N[C@@H](CCCN=C(N)N)B3O[C@@H]4CC5CC(C5(C)C)[C@]4(C)O3)c2)c1` (some centres not stated): the Ki was determined as 35 nM in assay [1] and 8.3 nM in assay [2].
In assay [2], `CC1(C)C2CC1[C@]1(C)OB([C@H](CCCN=C(N)N)NC(=O)c3ccc(-c4ccccc4)cc3F)O[C@@H]1C2` (some centres not stated) had a Ki of 1.2 nM.
Take `CC1(C)C2CC1[C@]1(C)OB([C@H](CCCN=C(N)N)NC(=O)c3ccc(-c4ccccc4)cc3N)O[C@@H]1C2` (some centres not stated): the inhibition constant Ki in assay [1] amounted to 5.3 nM; in assay [2], 1.3 nM.
Compound `CC1(C)C2CC1[C@]1(C)OB([C@H](CCCN=C(N)N)NC(=O)c3ccc(-c4ccccc4)cc3[N+](=O)[O-])O[C@@H]1C2` (some centres not stated) yielded a Ki in assay [2] of 4.7 nM.
In the case of `CC(C)(C)OC(=O)Nc1cccc(-c2ccc(C(=O)N[C@@H](CCCN=C(N)N)B3O[C@@H]4CC5CC(C5(C)C)[C@]4(C)O3)o2)c1` (some centres not stated), the Ki came out at 25 nM in assay [1] and 30 nM in assay [2].
Compound `CC1(C)C2CC1[C@]1(C)OB([C@H](CCCNC(=N)N)NC(=O)c3ccc(-c4ccccc4)o3)O[C@@H]1C2` (some centres not stated) had a Ki in assay [2] of 137 nM.
In turn, `CC1(C)C2CC1[C@]1(C)OB([C@H](CCCNC(=N)N)NC(=O)c3ccc(-c4ccncc4)cc3)O[C@@H]1C2` (some centres not stated) displayed a Ki in assay [2] of 19 nM.
In turn, `Cc1cc(-c2ccccc2S(=O)(=O)NC(C)(C)C)ccc1C(=O)N[C@@H](CCCN=C(N)N)B1O[C@@H]2CC3CC(C3(C)C)[C@]2(C)O1` (some centres not stated) displayed an IC50 in assay [3] of 140 nM. The inhibitory constant (Ki) is 0.7 nM in assay [1] and 0.21 nM in assay [2].
For the compound `Cc1cc(-c2ccccc2C(F)(F)F)ccc1C(=O)N[C@@H](CCCN=C(N)N)B1O[C@@H]2CC3CC(C3(C)C)[C@]2(C)O1` (some centres not stated), the results for the Ki in assay [1] and in assay [2] were 3.1 nM and 0.46 nM, respectively.
For the compound `Cc1cc(-c2ccccc2S(N)(=O)=O)ccc1C(=O)N[C@@H](CCCN=C(N)N)B1O[C@@H]2CC3CC(C3(C)C)[C@]2(C)O1` (some centres not stated), the midpoint of inhibition in assay [3], the IC50, lay at 110 nM. The Ki in assay [1] was 0.11 nM; in assay [2], 0.92 nM.
On to `CC1(C)OB([C@H](CCCNC(=N)N)NC(=O)c2ccccc2)OC1(C)C`, for which the inhibition constant Ki in assay [1] was determined as 70 nM; in assay [2] it was 512 nM.
As for `Cc1cc(-c2ccccc2)ccc1C(=O)N[C@@H](CCCCN)B1O[C@@H]2CC3CC(C3(C)C)[C@]2(C)O1` (some centres not stated), in assay [2], the inhibitory constant (Ki) worked out at 26 nM.
In the case of `CC1(C)C2CC1[C@]1(C)OB([C@H](CCCNC(=N)N)NC(=O)c3cccc(-c4cccc(NS(C)(=O)=O)c4)c3)O[C@@H]1C2` (some centres not stated), the Ki was 3.8 nM in assay [1] and 3.5 nM in assay [2].
In turn, `CC1(C)C2CC1[C@]1(C)OB([C@H](CCCN=C(N)N)NC(=O)Cc3ccc(-c4ccccc4)cc3)O[C@@H]1C2` (some centres not stated) displayed a Ki in assay [2] of 6.9 nM.
